Data reported in US20260234165A1, “MACROCYCLIC COMPOUNDS, PREPARATION METHOD THEREFOR, AND USE THEREOF” (GENFLEET THERAPEUTICS (SHANGHAI) INC., priority 2004, published 2026).

The compounds below were run on NCI-H441 cells (assay: 3D cell proliferation assay (CellTiter Glo-3D), NCI-H441). Conditions: 3D cell proliferation (CellTiter Glo-3D), medium with 2% FBS, read-out: H441 AP IC50.
Format: cell-based, human
In short: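 Luminescence read-out (CellTiter-Glo 3D) after 5-day compound exposure at 37 °C, 5% CO2. Cells: NCI-H441 and AsPC-1, 800/well, RPMI-1640 + 2% FBS, 0.1% DMSO final. IC50 by four-parameter fit of % inhibition against log concentration.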

IC50	Compound
0.17 nM	CO[C@@H](C)c1ncc(C#CCN2CCCOCC2)cc1-c1c2c3cc(ccc3n1CC(F)(F)F)-c1csc(n1)C[C@H](NC(=O)[C@H]1[C@H](C)[C@@H]1C)C(=O)N1CCC[C@H](N1)C(=O)OCC(C)(C)C2 (atropisomer, axis not shown; (Ra)) [Compound Z700, N-((6^3S,4S,Z)-1^1-(2,2,2-trifluoroethyl)-(Ra)-1^2-(2-((S)-1-methoxyethyl)-(5-(3-(1,4-oxazepan-4-yl)prop-1-yn-1-yl))-pyridin-3-yl)-10,10-dimethyl-5,7-dioxo-6^1,6^2,6^3,6^4,6^5,6^6-hexahydro-1^1H-8-oxa-2(4,2)-thiazola-1(5,3)-indola-6(1,3)-pyridazinacycloundecaphane-4-yl)-2,3-dimethylcyclopropane-1-carboxamide]
0.27 nM	CCn1c(-c2cc(C#CCN3C4CCC3COC4)cnc2[C@H](C)OC)c2c3cc(ccc31)-c1csc(n1)C[C@H](NC(=O)[C@H]1[C@H](C)[C@@H]1C)C(=O)N1CCC[C@H](N1)C(=O)OCC(C)(C)C2 (atropisomer, axis not shown; (Ra)) [Compound Z711, (1r,2R,3S)—N-((6^3S,4S,Z)—(Ra)-1^2-(5-(3-(3-oxa-8-azabicyclo[3.2.1]octan-8-yl)prop-1-yn-1-yl)-2-((S)-1-methoxyethyl)pyridin-3-yl)-1^1-ethyl-10,10-dimethyl-5,7-dioxo-6^1,6^2,6^3,6^4,6^5,6^6-hexahydro-1^1H-8-oxa-2(4,2)-thiazola-1(5,3)-indola-6(1,3)-pyridazinacycloundecaphane-4-yl)-2,3-dimethylcyclopropane-1-carboxamide]
0.28 nM	CCn1c(-c2cc(C#CCN(C)CCOC)cnc2[C@H](C)OC)c2c3cc(ccc31)-c1csc(n1)C[C@H](NC(=O)[C@H]1[C@H](C)[C@@H]1C)C(=O)N1CCC[C@H](N1)C(=O)OCC(C)(C)C2 (atropisomer, axis not shown; (Ra)) [Compound Z788]
0.15 nM	CCn1c(-c2cc(C#CCN3CCOC[C@H]3C)cnc2[C@H](C)OC)c2c3cc(ccc31)-c1csc(n1)C[C@H](NC(=O)[C@H]1[C@H](C)[C@@H]1C)C(=O)N1CCCC(N1)C(=O)OCC(C)(C)C2 (atropisomer, axis not shown; (Ra)) [Compound Z813]
0.63 nM	CCn1c(-c2cc(C#CCN3CCCOCC3)cnc2C(C)C)c2c3cc(ccc31)-c1csc(n1)C[C@H](NC(=O)[C@H]1[C@H](C)[C@@H]1C)C(=O)N1CCC[C@H](N1)C(=O)OCC(C)(C)C2 (atropisomer, axis not shown; (Sa)) [Compound Z811-2, (1r,2R,3S)—N-((6^3S,4S,Z)—(Sa)-1-(5-(3-(1,4-oxazepan-4-yl)prop-1-yn-1-yl)-2-isopropylpyridin-3-yl)-1^1-ethyl-10,10-dimethyl-5,7-dioxo-6^1,6^2,6^3,6^4,6^5,6^6-hexahydro-1^1H-8-oxa-2(4,2)-thiazola-1(5,3)-indola-6(1,3)-pyridazinacycloundecaphane-4-yl)-2,3-dimethylcyclopropane-1-carboxamide]

Same assay, conditions: Homo sapiens, NCI-H441, 3D cell proliferation (CellTiter Glo-3D), medium with 2% FBS, read-out: H441 AP IC50

Compound	IC50
CCn1c(-c2cc(N3CCN4CC5(CC5)OC[C@@H]4C3)cnc2[C@H](C)OC)c2c3cc(ccc31)-c1csc(n1)C[C@H](NC(=O)[C@H]1[C@H](C)[C@@H]1C)C(=O)N1CCC[C@H](N1)C(=O)OCC1(CC1)C2 (atropisomer, axis not shown; (Ra)) [Compound Z13]	1.2 nM
CCn1c(-c2cc(C#CCN3CCC(C(F)(F)F)CC3)cnc2[C@H](C)OC)c2c3cc(ccc31)-c1csc(n1)C[C@H](NC(=O)[C@H]1[C@H](C)[C@@H]1C)C(=O)N1CCC[C@H](N1)C(=O)OCC(C)(C)C2 (atropisomer, axis not shown; (Ra)) [Compound Z778]	1.14 nM
CCn1c(-c2cc(C#CCN3CCS(=O)(=O)CC3)cnc2[C@H](C)OC)c2c3cc(ccc31)-c1csc(n1)C[C@H](Nc1nnc3cc(C)ccn13)C(=O)N1CCC[C@H](N1)C(=O)OCC(C)(C)C2 (atropisomer, axis not shown; (Ra)) [Compound Z911, (6^3S,4S,Z)—(Ra)-1^2-(5-(3-(1,1-dioxidothiomorpholino)prop-1-yn-1-yl)-2-((S)-1-methoxyethyl)pyridin-3-yl)-1^1-ethyl-10,10-dimethyl-4-((7-methyl-[1,2,4]triazolo[4,3-a]pyridin-3-yl)amino)-6^1,6^2,6^3,6^4,6^5,6^6-hexahydro-1^1H-8-oxa-2(4,2)-thiazola-1(5,3)-indola-6(1.3)-pyridazinacycloundecaphane-5,7-dione]	1.16 nM
CCn1c(-c2cc(C#CCN3CCCOCC3)cnc2[C@H](C)OC)c2c3cc(ccc31)-c1csc(n1)C[C@H](NC(=O)CC1CC1)C(=O)N1CCC[C@H](N1)C(=O)OCC(C)(C)C2 (atropisomer, axis not shown; (Ra)) [Compound Z915]	1.04 nM
CCn1c(-c2cc(N3CCN(CCS(C)(=O)=O)CC3)cnc2[C@H](C)OC)c2c3cc(ccc31)-c1csc(n1)C[C@H](NC(=O)[C@H]1[C@H](C)[C@@H]1C)C(=O)N1CCC[C@H](N1)C(=O)OCC1(CC1)C2 (single isomer, unassigned) [Compound Z367]	2.14 nM
CCO[C@@H](C)c1ncc(N2CCN(CCS(C)(=O)=O)CC2)cc1-c1c2c3cc(ccc3n1CC)-c1csc(n1)C[C@H](NC(=O)[C@H]1[C@H](C)[C@@H]1C)C(=O)N1CCC[C@H](N1)C(=O)OCC1(CC1)C2 (single isomer, unassigned) [Compound Z378-1]	3.62 nM

Further lines, results first:

IC50	Compound
0.3 nM	CCn1c(-c2cc(C#C[C@@H]3COCCN3C)cnc2[C@H](C)OC)c2c3cc(ccc31)-c1csc(n1)C[C@H](NC(=O)[C@H]1[C@H](C)[C@@H]1C)C(=O)N1CCC[C@H](N1)C(=O)OCC(C)(C)C2 (atropisomer, axis not shown; (Ra)) [Compound Z672, (1r,2R,3S)—N-((6^3S,4S,Z)-1^1-ethyl-(Ra)-1^2-(2-((S)-1-methoxyethyl)-5-(((R)-4-methylmorpholin-3-yl)ethynyl)pyridin-3-yl)-10,10-dimethyl-5,7-dioxo-6^1,6^2,6^3,6^4,6^5,6^6hexahydro-1^1H-8-oxa-2(4,2)-thiazola-1(5,3)-indola-6(1,3)-pyridazinacycloundecaphane-4-yl)-2,3-dimethylcyclopropane-1-carboxamide]
0.14 nM	CCn1c(-c2cc(C#CCN3CCN(C)C(=O)C3)cnc2[C@H](C)OC)c2c3cc(ccc31)-c1csc(n1)C[C@H](NC(=O)[C@H]1[C@H](C)[C@@H]1C)C(=O)N1CCC[C@H](N1)C(=O)OCC(C)(C)C2 (atropisomer, axis not shown; (Ra)) [Compound Z793]
0.26 nM	CCn1c(-c2cc(C#CCN3CCCN(C)CC3)cnc2[C@H](C)OC)c2c3cc(ccc31)-c1csc(n1)C[C@H](NC(=O)[C@H]1[C@H](C)[C@@H]1C)C(=O)N1CCC[C@H](N1)C(=O)OCC(C)(C)C2 (atropisomer, axis not shown; (Ra)) [Compound Z802, (1r,2R,3S)—N-((6^3S,4S,Z)-1^2-(5-(3-(4-methyl-1,4-diaza-1-yl)prop-1-yn-1-yl)-(Ra)-2-((S)-1-methoxyethyl)pyridin-3-yl)-1^1-ethyl-10,10-dimethyl-5,7-dioxo-6^1,6^2,6^3,6^4,6^5,6^6-hexahydro-1^1H-8-oxa-2(4,2)-thiazola-1(5,3)-indola-6(1,3)-pyridazinacycloundecaphane-4-yl)-2,3-dimethylcyclopropane-1-carboxamide]
0.06 nM	CCn1c(-c2cc(C#CCN3CCS(=O)(=O)CC3)cnc2[C@H](C)OC)c2c3cc(ccc31)-c1csc(n1)C[C@H](NC(=O)[C@H]1[C@H](C)[C@@H]1C)C(=O)N1CCC[C@H](N1)C(=O)OCC(C)(C)C2 (atropisomer, axis not shown; (Ra)) [Compound Z838, (1r,2R,3S)—N-((6^3S,4S,Z)—(Ra)-1^2-(5-(3-(1,1-dioxidothiomorpholino)prop-1-yn-1-yl)-2-((S)-1-methoxyethyl)pyridin-3-yl)-1^1-ethyl-10,10-dimethyl-5,7-dioxo-6^1,6^2,6^3,6^4,6^5,6^6-hexahydro-1^1H-8-oxa-2(4,2)-thiazola-1(5,3)-indola-6(1,3)-pyridazinacycloundecaphane-4-yl)-2,3-dimethylcyclopropane-1-carboxamide]
0.31 nM	CCn1c(-c2cc(C#CCN3CCCOCC3)cnc2[C@H](C)OC)c2c3cc(ccc31)-c1csc(n1)C[C@H](NC(=O)[C@H]1[C@H](C)[C@@H]1C)C(=O)N1CCC[C@H](N1)C(=O)OCC(C)(C)C2 (single isomer, unassigned) [Compound Z504]
0.83 nM	CCn1c(-c2cc(C#CCN3CCC3)cnc2[C@H](C)OC)c2c3cc(ccc31)-c1csc(n1)C[C@H](NC(=O)[C@H]1[C@H](C)[C@@H]1C)C(=O)N1CCC[C@H](N1)C(=O)OCC(C)(C)C2 (single isomer, unassigned) [Compound Z554]
0.45 nM	CCn1c(-c2cc(C#CCN3CCCOCC3)cnc2[C@H](C)OC)c2c3cc(ccc31)-c1csc(n1)C[C@H](NC(=O)[C@H]1C[C@@H]1C)C(=O)N1CCC[C@H](N1)C(=O)OCC(C)(C)C2 (single isomer, unassigned) [Compound Z604]
0.61 nM	CCn1c(-c2cc(C#CCN3CCCOCC3)cnc2[C@H](C)OC)c2c3cc(ccc31)-c1csc(n1)C[C@H](NC(=O)CC(C)C)C(=O)N1CCC[C@H](N1)C(=O)OCC(C)(C)C2 (single isomer, unassigned) [Compound Z803]
